Data reported in ChEMBL document CHEMBL2163289, “The discovery of N-[5-(4-bromophenyl)-6-[2-[(5-bromo-2-pyrimidinyl)oxy]ethoxy]-4-pyrimidinyl]-N'-propylsulfamide (Macitentan), an orally active, potent dual endothelin receptor antagonist” (J Med Chem, 2012).
Values belong to the compound of their own block, whether it stands above or below them. Active and inactive are the calls of the source. No cut-off for these calls is given here.

What was measured:
Rattus norvegicus [1] = test: Antihypertensive activity in telemeterized hypertensive Dahl salt-sensitive rat assessed as duration of mean arterial blood pressure lowering action at 100 mg/kg, po; format: functional, Artery
Rattus norvegicus [2] = test: Antihypertensive activity in telemeterized hypertensive Dahl salt-sensitive rat assessed as reduction in mean arterial blood pressure at 100 mg/kg, po measured over 6 hrs; format: functional, Artery
Rattus norvegicus [3] = test: Antihypertensive activity in telemeterized hypertensive Dahl salt-sensitive rat assessed as duration of mean arterial blood pressure lowering action at 3 mg/kg, po; format: functional, Artery
Rattus norvegicus [4] = test: Antihypertensive activity in telemeterized hypertensive Dahl salt-sensitive rat assessed as reduction in mean arterial blood pressure at 3 mg/kg, po measured over 6 hrs; format: functional, Artery
Rattus norvegicus [5] = test: Effect on heart rate in telemeterized hypertensive Dahl salt-sensitive rat at 3 mg/kg, po
Endothelin-1 receptor = target: T1, Endothelin-1 receptor (Homo sapiens, UniProt P25101); test: Displacement of [I125]ET1 from recombinant ETA receptor expressed in CHO cells after 2 hrs by TopCount analysis; format: cell-based
T1 sequence (P25101 whole entry): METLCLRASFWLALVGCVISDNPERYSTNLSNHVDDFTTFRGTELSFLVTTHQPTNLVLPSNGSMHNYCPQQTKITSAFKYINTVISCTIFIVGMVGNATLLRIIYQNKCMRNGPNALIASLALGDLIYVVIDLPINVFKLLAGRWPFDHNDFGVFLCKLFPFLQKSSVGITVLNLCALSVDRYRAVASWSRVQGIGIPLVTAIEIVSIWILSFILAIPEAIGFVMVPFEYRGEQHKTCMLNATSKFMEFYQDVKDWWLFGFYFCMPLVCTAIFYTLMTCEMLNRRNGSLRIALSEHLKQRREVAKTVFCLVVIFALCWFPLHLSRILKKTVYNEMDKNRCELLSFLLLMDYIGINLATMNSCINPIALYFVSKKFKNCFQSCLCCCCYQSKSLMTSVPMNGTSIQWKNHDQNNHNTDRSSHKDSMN

Rattus norvegicus [6] = test: Cmax in Wistar rat assessed as N-[5-(4-Bromophenyl)-6-[2-[(5-bromo-2-pyrimidinyl)oxy]ethoxy]-4-pyrimidinyl]-sulfamide level at 10 mg/kg, po at 6 hrs; format: ADME, organism-based; set-up: dose 10 mg/kg, route oral; conditions: in vivo
Rattus norvegicus [7] = species on record: Rattus norvegicus; test: Toxicity in rat assessed as inhibition of bile salt transport; format: organism-based; conditions: in vivo
Canis familiaris = species on record: Canis familiaris; test: Drug metabolism in beagle dog assessed as N-[5-(4-Bromophenyl)-6-[2-[(5-bromo-2-pyrimidinyl)oxy]ethoxy]-4-pyrimidinyl]-sulfamide formation; format: ADME, organism-based, Canis lupus familiaris; conditions: in vivo
Rattus norvegicus [8] = species on record: Rattus norvegicus; test: Drug metabolism in Wistar rat assessed as N-[5-(4-Bromophenyl)-6-[2-[(5-bromo-2-pyrimidinyl)oxy]ethoxy]-4-pyrimidinyl]-sulfamide formation; format: ADME, organism-based; conditions: in vivo
[9] = Oral bioavailability in beagle dog at 10 mg/kg; format: ADME, organism-based, Canis lupus familiaris; conditions: in vivo
[10] = Tmax in beagle dog at 10 mg/kg, po; format: ADME, organism-based, Canis lupus familiaris; set-up: dose 10 mg/kg, route oral; conditions: in vivo
[11] = AUC (0 to infinity) in beagle dog at 10 mg/kg, po; format: ADME, organism-based, Canis lupus familiaris; set-up: time infinity, dose 10 mg/kg, route oral; conditions: plasma
[12] = Cmax in beagle dog at 10 mg/kg, po; format: ADME, organism-based, Canis lupus familiaris; set-up: dose 10 mg/kg, route oral; conditions: in vivo
[13] = Half life in beagle dog at 1 mg/kg, iv; format: ADME, organism-based, Canis lupus familiaris; set-up: dose 1 mg/kg, route intravenous; conditions: in vivo
[14] = Clearance in beagle dog at 1 mg/kg, iv; format: ADME, organism-based, Canis lupus familiaris; set-up: dose 1 mg/kg, route intravenous; conditions: in vivo
[15] = Volume of distribution at steady state in beagle dog at 1 mg/kg, iv; format: ADME, organism-based, Canis lupus familiaris; set-up: dose 1 mg/kg, route intravenous; conditions: in vivo, read-out: Vdss
[16] = AUC (0 to infinity) in beagle dog at 1 mg/kg, iv; format: ADME, organism-based, Canis lupus familiaris; set-up: dose 1 mg/kg, route intravenous, time infinity; conditions: plasma
[17] = Tmax in Wistar rat at 10 mg/kg, po; format: ADME, organism-based; set-up: dose 10 mg/kg, route oral; conditions: in vivo
[18] = Oral bioavailability in Wistar rat at 10 mg/kg; format: ADME, organism-based; conditions: in vivo
[19] = AUC (0 to infinity) in Wistar rat at 10 mg/kg, po; format: ADME, organism-based; set-up: time infinity, dose 10 mg/kg, route oral; conditions: plasma
[20] = Cmax in Wistar rat at 10 mg/kg, po; format: ADME, organism-based; set-up: dose 10 mg/kg, route oral; conditions: in vivo
[21] = Volume of distribution at steady state in Wistar rat at 1 mg/kg, iv; format: ADME, organism-based; set-up: dose 1 mg/kg, route intravenous; conditions: in vivo, read-out: Vdss
[22] = Half life in Wistar rat at 1 mg/kg, iv; format: ADME, organism-based; set-up: dose 1 mg/kg, route intravenous; conditions: in vivo
[23] = Clearance in Wistar rat at 1 mg/kg, iv; format: ADME, organism-based; set-up: dose 1 mg/kg, route intravenous; conditions: in vivo
[24] = AUC (0 to infinity) in Wistar rat at 1 mg/kg, iv; format: ADME, organism-based; set-up: time infinity, dose 1 mg/kg, route intravenous; conditions: plasma
Rattus norvegicus [25] = test: Toxicity in telemeterized hypertensive Dahl salt-sensitive rat assessed as tachyphylaxis at 1 mg/kg, po administered QD for 5 days; format: organism-based; set-up: dose 1 mg/kg, route oral; conditions: in vivo, 120 h
Rattus norvegicus [26] = test: Antihypertensive activity in telemeterized hypertensive Dahl salt-sensitive rat assessed as reduction in mean arterial blood pressure at 1 mg/kg, po administered QD for 5 days; format: functional, Artery
Rattus norvegicus [27] = test: Effect on heart rate in telemeterized hypertensive Dahl salt-sensitive rat at 1 to 100 mg/kg, po
Rattus norvegicus [28] = test: Antihypertensive activity in po dosed telemeterized hypertensive Dahl salt-sensitive rat assessed as reduction in mean arterial blood pressure; conditions: Artery
Rattus norvegicus [29] = test: Antihypertensive activity in telemeterized hypertensive Dahl salt-sensitive rat assessed as reduction in mean arterial blood pressure at 1 mg/kg, po administered QD for 5 days measured 48 hrs post last-dose; conditions: Artery

IC50 (Endothelin-1 receptor): 1.4 nM
Compound: O=S(=O)(NCc1ccccc1)Nc1ncnc(OCCOc2ncc(Br)cn2)c1-c1ccc(Cl)cc1
Fall in mean arterial blood pressure (Rattus norvegicus [4]): 18 mmHg | Activity (Rattus norvegicus [5]): inactive

IC50 (Endothelin-1 receptor): 1.6 nM
Compound: O=S(=O)(NCc1ccccc1)Nc1ncnc(OCCOc2ncc(Br)cn2)c1-c1ccc(Br)cc1
Fall in mean arterial blood pressure (Rattus norvegicus [4]): 14 mmHg | Activity (Rattus norvegicus [5]): inactive

Drug metabolism (Canis familiaris): Active | Drug metabolism (Rattus norvegicus [8]): Active | bioavailability [9]: 87% | Tmax [10]: 2 h | AUC(0-inf) [11]: 27500 ng·h/mL | Cmax [12]: 4590 ng/mL | half-life [13]: 4.1 h | clearance [14]: 5.4 mL/min/kg | Vd [15]: 0.9 L/kg | AUC(0-inf) [16]: 3170 ng·h/mL | Tmax [17]: 6 h | bioavailability [18]: 69% | AUC(0-inf) [19]: 18500 ng·h/mL | Cmax [20]: 1670 ng/mL | Vd [21]: 1.8 L/kg | half-life [22]: 5.1 h | clearance [23]: 6.7 mL/min/kg | AUC(0-inf) [24]: 2680 ng·h/mL | IC50 (Endothelin-1 receptor): 0.5 nM
Compound: CCCNS(=O)(=O)Nc1ncnc(OCCOc2ncc(Br)cn2)c1-c1ccc(Br)cc1
Activity (Rattus norvegicus [7]): Non-toxic | Activity (Rattus norvegicus [25]): Non-toxic | MPE (Rattus norvegicus [26]): 20 mmHg | Time (Rattus norvegicus [3]): 60 h | Fall in mean arterial blood pressure (Rattus norvegicus [4]): 25 mmHg | Activity (Rattus norvegicus [27]): inactive | Activity (Rattus norvegicus [28]): Dose-dependent effect | Activity (Rattus norvegicus [29]): Active

Continued, compound first:

Compound: COc1ccccc1Oc1c(NS(=O)(=O)c2ccc(C(C)(C)C)cc2)nc(-c2ncccn2)nc1OCCO [BOSENTAN]
Time (Rattus norvegicus [1]): 72 h | MPE (Rattus norvegicus [2]): 30 mmHg | Time (Rattus norvegicus [3]): 15 h | Fall in mean arterial blood pressure (Rattus norvegicus [4]): 7 mmHg | Activity (Rattus norvegicus [5]): inactive

Compound: CCCCNS(=O)(=O)Nc1ncnc(OCCOc2ncc(Br)cn2)c1-c1ccc(Br)cc1
Cmax (Rattus norvegicus [6]): 4100 ng/mL | Fall in mean arterial blood pressure (Rattus norvegicus [4]): 16 mmHg | IC50 (Endothelin-1 receptor): 0.3 nM
